Data as given in US20090176759A1, “LEUKEMIC STEM CELL ABLATION” (ChemGenex Pharmaceuticals, Inc., priority 2007, published 2009).

Assays:
[1] = system: MCL-1; assay: Western Blot analysis of MCL-1 expression in K562 cells; type: cell-based; details: K562 (myeloid) cells
Procedure: (§1) In FIG. 1A the number of viable cells at the indicated drug concentrations was determined by trypan blue. In FIG. 1B the expression of ABL and MCL-1 in K562 (myeloid) cells is inhibited by HHT. In FIG. 1C the expression of ABL in lymphoid cells with BCR-ABL or the BCR-ABL T315I mutation is inhibited by HHT.
(§2) Antibodies for Western Blot analysis against c-ABL, Mcl-1 and β-actin were purchased from Santa Cruz Biothechology (Santa Cruz, Calif.). Protein lysates were prepared by lysing cells in RIPA buffer and immunoprecipitation. The retroviral vector MSCV-IRES-eGFP carrying the BCR-ABL cDNA was used to make virus stock for bone marrow transduction/transplantation. Four- to 10-week-old wild-type BABL/c or C57BL/6 (The Jackson Laboratory) and homozygous SRC triple gene knockout (Lyn−/−Hck−/−Fgr−/−) mice were used for leukemogenesis experiments. HHT (ChemGenex Pharmaceuticals, Inc, CA) was dissolved in accompanying diluent to a stock concentration of 1 mg/ml. Further dilutions were made to working concentrations using media or water.

[2] = system: BCR-ABL-WT-induced CML; assay: Mice with BCR-ABL-WT-induced CML treated with HHT; type: in vivo
Procedure: (§3) FIG. 2A is a FACS analysis of circulating GFP+ cells in mice with BCR-ABL-WT-induced CML. […] The number of circulating leukemic cells (calculated as percentage of Gr-1+GFP+ cells×white blood cell count) in mice with BCR-ABL-WT-induced CML treated with placebo or HHT for 4 days was determined on day 12 after transplantation. FIG. 2B depicts a bar graph for the leukemic cells as well as a bar graph for spleen weight of the mice treated with placebo or HHT.
as §2
as §3, with “of circulating leukemic GFP+ cells” for “of circulating GFP+ cells”

[3] = system: ABL; assay: Western Blot analysis of ABL expression; type: cell-based
Procedure: as §1, §2

[4] = system: B-cells containing BCR-ABL-WT; assay: Proliferation, number of viable cells determined by trypan blue; type: cell-based
Procedure: as §1, §2

[5] = system: B-cells containing BCR-ABL-T315I; assay: as above; type: cell-based
Procedure: as §1, §2

[6] = system: K562 myeloid cells; assay: as above; type: cell-based
Procedure: as §1, §2

[7] = system: leukemia stem cells (GFP+Lin− c-Kit+Sca-1+); assay: Bone marrow cells from CML mice cultured in vitro with HHT, FACS analysis of leukemia stem cells; type: cell-based
Procedure: (§4) FIG. 5A is a FACS analysis of bone marrow cells isolated from mice with BCR-ABL-WT-induced CML were cultured in vitro (5×10^6 cells/6 cm tissue culture plate) in the presence of different doses of HHT for 6 days (changing the stem cell medium containing placebo or HHT at day 3) followed by FACS analysis of leukemia stem cells (GFP+Lin− c-Kit+Sca-1+). FIG. 5B depicts bar graphs for the leukemic cells and leukemic stem cells. […] Bone marrow cells were isolated from the treated CML mice, and leukemia stem cells were analyzed by FACS. The numbers of cells represent total leukemia stem cells in average from femur and tibia of each treated CML mouse.
FIG. 5A is a FACS analysis of bone marrow cells isolated from mice with BCR-ABL-WT-induced CML that were cultured in vitro (5×10^6 cells/6 cm tissue culture plate) in the presence of different doses of HHT for 6 days (changing the stem cell medium containing placebo or HHT at day 3) followed by FACS analysis of leukemia stem cells (GFP+ Lin− c-Kit+Sca-1+). FIG. 5B depicts bar graphs for the leukemic cells and leukemic stem cells.

[8] = system: BCR-ABL-induced B-ALL; assay: Mice with BCR-ABL-induced B-ALL treated with HHT; type: in vivo
Procedure: FIG. 4A is a FACS analysis evaluation of the leukemic process in HHT or placebo treated B-ALL mice after 4 days or 10 days.
as §2

[9] = system: leukemia stem cells of mice with BCR-ABL-WT-induced CML; assay: Leukemic cells and leukemia stem cells in bone marrow of treated CML mice, FACS; type: in vivo; details: HHT 0.5 mg/kg once every day, imatinib 100 mg/kg twice a day, by gavage, 4 days beginning at day 8 after transplantation
Procedure: as §4
Bone marrow cells were isolated from the treated CML mice, and leukemia stem cells were analyzed by FACS. The numbers of cells represent total leukemia stem cells in average from femur and tibia of each treated CML mouse.

[10] = in vitro, different doses of HHT for 6 days

## COC(=O)C[C@](O)(CCCC(C)(C)O)C(=O)O[C@@H]1C(OC)=C[C@]23CCCN2CCc2cc4c(cc2[C@H]13)OCO4 [HHT, Homoharringtonine]
[1]
  expression of MCL-1: inhibited
[2]; BCR-ABL-WT CML mice, HHT vs placebo
  survival: significantly increased
[2]; HHT 0.5 mg/kg for 4 days, day 12 after transplantation, vs placebo
  number of circulating leukemic cells (percentage of Gr-1+GFP+ cells×white blood cell count): significantly reduces
[2]; HHT 0.5 mg/kg vs placebo
  size of the spleen (spleen weight): significantly reduces
[3]; K562 (myeloid) cells
  expression of ABL: inhibited
[3]; lymphoid cells with BCR-ABL
  expression of ABL: inhibited
[3]; lymphoid cells with the BCR-ABL T315I mutation
  expression of ABL: inhibited
[4]
  proliferation: inhibits the proliferation
[5]
  proliferation: inhibits the proliferation
[6]
  proliferation: inhibits the proliferation
[7]
  proliferation of BCR-ABL-expressing leukemic stem cells: inhibits the proliferation
[7]; [10]
  number of leukemic cells: reduces
  number of leukemic stem cells: reduces
[8]; B-ALL mice after 4 days or 10 days, HHT vs placebo
  leukemic cells (FACS): significant reduction in leukemic cells as a function of treatment time and HHT dosage
[8]; B-ALL mice, HHT 1 mg/kg
  survival: prolonged survival
[9]
  number of leukemic cells in bone marrow: reduces
  number of leukemic stem cells in bone marrow (femur and tibia): reduces
